Experimental data published in ChEMBL document CHEMBL3431459, “Roche carnitine palmitoyltransferase modulator screening data (supplementary data associated with the publication CHEMBL2216752)”.
≈ marks a conversion by molar mass, not a printed value.

Columns and labels:
[1] = target: T1, Carnitine O-palmitoyltransferase 2, mitochondrial (Rattus norvegicus, UniProt P18886); test: (§1) SUPPLEMENTARY: Inhibition of Carnitine palmitoyltransferase 2
T1 sequence (P18886 whole entry): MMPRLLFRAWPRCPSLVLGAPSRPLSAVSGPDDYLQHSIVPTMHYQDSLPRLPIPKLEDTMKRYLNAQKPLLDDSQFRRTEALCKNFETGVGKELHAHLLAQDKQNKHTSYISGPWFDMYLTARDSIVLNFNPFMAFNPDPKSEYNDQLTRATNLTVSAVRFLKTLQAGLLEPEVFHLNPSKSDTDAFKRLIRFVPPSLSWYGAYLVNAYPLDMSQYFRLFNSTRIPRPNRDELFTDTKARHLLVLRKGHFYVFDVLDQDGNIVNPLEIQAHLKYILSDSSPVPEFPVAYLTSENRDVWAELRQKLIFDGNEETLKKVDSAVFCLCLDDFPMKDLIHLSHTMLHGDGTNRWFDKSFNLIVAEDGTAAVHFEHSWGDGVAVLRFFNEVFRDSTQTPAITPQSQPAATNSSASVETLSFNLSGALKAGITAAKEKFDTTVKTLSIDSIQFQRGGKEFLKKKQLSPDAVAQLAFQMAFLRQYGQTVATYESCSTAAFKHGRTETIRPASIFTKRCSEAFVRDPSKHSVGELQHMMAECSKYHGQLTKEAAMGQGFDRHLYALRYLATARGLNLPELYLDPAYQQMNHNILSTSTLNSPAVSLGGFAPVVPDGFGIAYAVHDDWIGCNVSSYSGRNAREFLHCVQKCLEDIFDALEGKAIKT

[2] = target: T2, Carnitine O-palmitoyltransferase 2, mitochondrial (Homo sapiens, UniProt P23786); test: as §1
T2 sequence (P23786 whole entry): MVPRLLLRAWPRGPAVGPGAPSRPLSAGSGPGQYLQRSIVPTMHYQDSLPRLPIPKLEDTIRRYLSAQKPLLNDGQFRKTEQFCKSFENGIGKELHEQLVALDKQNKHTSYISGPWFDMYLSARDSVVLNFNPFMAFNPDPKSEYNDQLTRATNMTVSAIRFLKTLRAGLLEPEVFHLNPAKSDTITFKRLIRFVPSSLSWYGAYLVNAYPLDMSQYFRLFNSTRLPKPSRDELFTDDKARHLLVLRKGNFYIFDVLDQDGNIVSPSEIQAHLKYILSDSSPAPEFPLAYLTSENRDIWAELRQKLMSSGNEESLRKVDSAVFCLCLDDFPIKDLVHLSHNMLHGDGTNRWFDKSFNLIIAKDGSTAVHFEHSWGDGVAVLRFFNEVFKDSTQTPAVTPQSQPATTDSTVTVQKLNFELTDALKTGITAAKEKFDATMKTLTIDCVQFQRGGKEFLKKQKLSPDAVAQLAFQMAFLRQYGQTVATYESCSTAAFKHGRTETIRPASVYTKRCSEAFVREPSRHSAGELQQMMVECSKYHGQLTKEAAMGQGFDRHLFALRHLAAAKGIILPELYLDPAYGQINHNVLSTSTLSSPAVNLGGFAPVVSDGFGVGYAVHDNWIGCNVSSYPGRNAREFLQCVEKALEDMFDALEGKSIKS

[3] = target: T3, Carnitine O-palmitoyltransferase 1, liver isoform (Rattus norvegicus, UniProt P32198); test: SUPPLEMENTARY: Inhibition of Carnitine palmitoyltransferase 1, liver isoform
T3 sequence (P32198 whole entry): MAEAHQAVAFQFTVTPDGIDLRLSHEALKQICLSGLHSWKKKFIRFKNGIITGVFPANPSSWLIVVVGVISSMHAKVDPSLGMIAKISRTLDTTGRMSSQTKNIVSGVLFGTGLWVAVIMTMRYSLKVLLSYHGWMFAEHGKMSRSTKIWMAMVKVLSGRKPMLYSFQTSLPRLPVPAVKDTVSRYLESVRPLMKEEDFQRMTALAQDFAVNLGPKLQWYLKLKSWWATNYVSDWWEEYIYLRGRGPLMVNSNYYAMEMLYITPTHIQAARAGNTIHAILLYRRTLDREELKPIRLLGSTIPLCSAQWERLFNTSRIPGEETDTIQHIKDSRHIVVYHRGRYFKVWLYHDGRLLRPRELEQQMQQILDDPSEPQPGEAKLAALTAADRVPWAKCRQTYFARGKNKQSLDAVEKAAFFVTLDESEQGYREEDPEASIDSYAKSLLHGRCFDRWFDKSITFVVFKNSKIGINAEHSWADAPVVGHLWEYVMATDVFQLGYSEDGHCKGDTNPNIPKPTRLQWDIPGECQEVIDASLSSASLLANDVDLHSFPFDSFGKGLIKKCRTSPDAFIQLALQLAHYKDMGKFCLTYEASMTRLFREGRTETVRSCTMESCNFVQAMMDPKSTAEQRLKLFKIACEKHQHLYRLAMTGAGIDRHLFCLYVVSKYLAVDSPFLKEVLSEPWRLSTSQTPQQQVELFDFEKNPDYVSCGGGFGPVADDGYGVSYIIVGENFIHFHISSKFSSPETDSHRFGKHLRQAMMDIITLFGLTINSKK

[4] = SUPPLEMENTARY: Lyophilisation Solubility Assay (LYSA); format: physicochemical; conditions: read-out: Kinetic_solubility
[5] = SUPPLEMENTARY: PAMPA permeability assay; format: physicochemical; conditions: read-out: Permeability
[6] = target: T4, Carnitine O-palmitoyltransferase 1, muscle isoform (Homo sapiens, UniProt Q92523); test: SUPPLEMENTARY: Inhibition of Carnitine palmitoyltransferase 1, muscle isoform; parameters: species or system Muscle tissue
T4 sequence (Q92523 whole entry): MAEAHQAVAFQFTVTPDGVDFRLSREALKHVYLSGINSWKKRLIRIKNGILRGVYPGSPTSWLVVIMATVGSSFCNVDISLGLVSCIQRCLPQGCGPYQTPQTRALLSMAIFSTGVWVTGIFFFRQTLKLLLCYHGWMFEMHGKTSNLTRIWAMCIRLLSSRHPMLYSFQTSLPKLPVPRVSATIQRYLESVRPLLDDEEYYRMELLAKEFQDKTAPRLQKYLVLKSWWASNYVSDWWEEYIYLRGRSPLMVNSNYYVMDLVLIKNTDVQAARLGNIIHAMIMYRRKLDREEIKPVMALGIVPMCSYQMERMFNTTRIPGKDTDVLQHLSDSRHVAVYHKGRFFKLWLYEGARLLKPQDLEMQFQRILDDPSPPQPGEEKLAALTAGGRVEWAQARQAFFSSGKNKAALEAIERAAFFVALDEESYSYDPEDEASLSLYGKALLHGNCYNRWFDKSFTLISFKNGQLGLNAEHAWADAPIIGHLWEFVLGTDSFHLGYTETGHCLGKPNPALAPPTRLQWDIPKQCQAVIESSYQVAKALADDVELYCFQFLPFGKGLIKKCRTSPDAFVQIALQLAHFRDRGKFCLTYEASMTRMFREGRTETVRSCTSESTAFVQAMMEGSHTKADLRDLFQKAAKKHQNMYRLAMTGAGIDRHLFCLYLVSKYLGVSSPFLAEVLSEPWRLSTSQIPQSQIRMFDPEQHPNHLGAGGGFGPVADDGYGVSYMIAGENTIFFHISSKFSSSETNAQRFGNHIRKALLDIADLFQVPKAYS

[7] = SUPPLEMENTARY: Lipophilicity (log D) Determination by high-throughput shake-flask; format: physicochemical; conditions: octanol/water

Row | IC50 [1] [µM] | IC50 [2] [µM] | IC50 [3] [nM] | solubility kinetic [4] [µg/mL] | Papp [5] [×10⁻⁶ cm/s] | IC50 [6] [µM] | logD [7] | Structure (SMILES)
1 | > 100 | 98.4 | 238 | 37 (≈ 71.8 µM) | 3.07 | 0.447 | 0.62 | COc1ccc(Cl)cc1S(=O)(=O)N1CCc2c(C)cc(C(=O)Nc3ccc(CC(=O)O)cc3)cc21
2 | 4.86 | 1.37 | 66.3 | 26 (≈ 51.5 µM) | 1.67 | 0.989 | 0.38 | COc1ccc(Cl)cc1S(=O)(=O)N1CCc2ccc(C(=O)Nc3ccc(C(=O)O)c(F)c3)cc21
3 | > 100 | 62.1 | 305 | 1 (≈ 2.42 µM) | 1.25 | > 100 | > 3 | O=C(COc1ccccc1)N1CCCC[C@@H]1c1nc(-c2ccc(Cl)nc2)cs1
4 | > 100 | 41.6 | 245 | < 1 | 1.95 | > 100 | > 3 | N#Cc1ccc(-c2csc([C@H]3CCCCN3C(=O)COc3ccccc3)n2)cc1
5 | > 100 | 23 | 529 | > 511 | 2.35 | 95.9 | 0.92 | O=C(O)c1cccc(-c2nc([C@H]3CCCCN3C(=O)COc3ccccc3)cs2)c1
6 | > 100 | 58.9 | 108 | 2 (≈ 4.88 µM) | 0.3 | > 100 | > 3 | COc1ccc(-c2nc([C@H]3CCCCN3C(=O)COc3ccccc3)cs2)cn1
7 | 20.5 | 3.45 | 94.7 | 30 (≈ 59.2 µM) | 1.92 | 2.08 | 0.35 | COc1ccc(Cl)cc1S(=O)(=O)N1COc2ccc(C(=O)Nc3ccc(C(=O)O)c(F)c3)cc21
8 | > 100 | > 100 | 306 | < 1 | 1.48 | > 100 | 3.8 | O=C(COc1ccccc1)N1CCCC[C@@H]1c1nc(-c2ccccc2)cs1
9 | 78.6 | 31.8 | 159 | 344 (≈ 814 µM) | 5.06 | > 100 | 1.06 | O=C(O)c1cccc(-c2csc([C@H]3CCCCN3C(=O)COc3ccccc3)n2)c1
10 | 88.3 | 24.3 | 60.5 | 37 (≈ 94 µM) | 2.07 | 36 | > 3 | Cc1ccc(-c2nc([C@H]3CCCCN3C(=O)COc3ccccc3)cs2)cn1
11 | > 100 | 1.86 | 327 | 1 (≈ 2.19 µM) | 2.11 | 6.12 | > 3 | CS(=O)(=O)c1ccc(-c2csc([C@H]3CCCCN3C(=O)COc3ccccc3)n2)cc1
12 | > 100 | > 100 | 179 | 1 (≈ 2.3 µM) | 1.23 | > 100 | 3.72 | CC(=O)Nc1ccc(-c2nc([C@H]3CCCCN3C(=O)COc3ccccc3)cs2)cc1
13 | > 100 | > 100 | 985 | < 1 | 1.31 | > 100 | > 3 | O=C(COc1ccccc1)N1CCCC[C@@H]1c1csc(-c2ccc(C(F)(F)F)nc2)n1
14 | 31.6 | 8.32 | 265 | 39 (≈ 103 µM) | 3.84 | > 100 | 2.95 | O=C(COc1ccccc1)N1CCCC[C@@H]1c1nc(-c2ccncc2)cs1
15 | 42.1 | 10.6 | 496 | > 563 | 5.18 | 29 | 1.09 | O=C(O)c1ccc(-c2csc([C@H]3CCCCN3C(=O)COc3ccccc3)n2)cc1
16 | > 100 | > 100 | 79.8 | 20 (≈ 42.5 µM) | 3.65 | 4.5 | 0.48 | O=C(O)Cc1ccc(NC(=O)c2ccc3c(c2)N(S(=O)(=O)c2cccc(Cl)c2)CC3)cc1
17 | > 100 | > 100 | 108 | 18 (≈ 47.4 µM) | 4.83 | > 100 | > 3 | O=C(COc1ccccc1)N1CCCC[C@@H]1c1csc(-c2ccccn2)n1
